The text below walks through data of patent US20130266663A1, “SOX9 INHIBITORS” (priority 2010, published 2013).

Holding throughout (format): cell-based, rat
The test system of one assay is SOX9. Put plainly: SOX9 luciferase reporter assay in transfected astrocytes. Particulars: for inhibition of SOX9 activity (luciferase assay): 24 h; for luciferase reporter activity (SOX9 activity) / concentration at which the decrease in luciferase reporter activity is optimized / maximal: cultured rat astrocytes; for luciferase reporter activity (SOX9 activity) / reduction of Sox9 activity as indicated by luciferase expression / concentration at which the decrease in luciferase reporter activity is optimized / maximal: 24 h treatment; for luciferase reporter activity (SOX9 activity): various concentrations (FIG. 5); for reduction of Sox9 activity as indicated by luciferase expression: concentration not stated (FIG. 5). An excerpt:
Cultures early after plating bear characteristics of immature and reactive astroctyes associated with acute damage. In this assay, primary astrocytes are transfected with a SOX9 reporter construct that consists of 4 repeats of the SOX9 binding site coupled to the mouse Col2a1 minimal promoter cloned upstream of a luciferase gene in the plasmid pGL4, as previously described in WO 2008/049226. After normalization for transfection efficiency, SOX9 activity can be monitored in transfected astrocytes by luciferase activity. Cells transfected with the SOX9 reporter construct were cultured in the presence and absence of potential inhibitors for 24 hours at which time the cells were lysed and luciferase levels measured. Compounds that reduced the levels of luciferase activity relative to control wells were considered as positive “hits”. In a secondary screen, false positives that cause a reduction in luciferase activity due to effects on cell viability, were eliminated using a cell viability assay (CellTiter-Flour—Promega). Subsequent to secondary screening, the “hits” were evaluated for their affect on SOX9 target gene expression by Q-PCR studies in primary astrocytes.
The utility of calmodulin antagonists (inhibitor) to decrease SOX9 target gene expression was evaluated in cultured rat astrocytes transfected with pGL4.1 4×48 Col2a1 prepared as described in Example 1. This plasmid contains 4-48 bp SOX9-binding sites from the Col2A1 enhancer which promote luciferase reporter gene expression in cells where SOX9 is active i.e. in the nucleus. The day after transfection, cells were treated for 24 h with inhibitor in concentrations as described below and in FIG. 5 before the luciferase assay was performed.
In this example, the potential of compounds that modulate calcium channels to modulate SOX9 activity is tested. The compounds were evaluated in cultured rat astrocytes transfected with pGL4.1 4×48 Col2a1. The day after transfection, cells were treated for 24 h with selected inhibitors before the luciferase assay was performed.
Antagonists to TRPV4 cation channel were tested to determine their ability to decrease the activity of SOX9 in astrocytes. The effect of TRPV4 antagonists on SOX9 function was evaluated in cultured rat astrocytes transfected with pGL4.1 4×48 Col2a1. The day after transfection, cells were treated for 24 h with 2-APB (100 μM) or ruthenium red (10 μM) before the luciferase assay was performed. […] With respect to SOX9 target genes, Q-PCR analysis of aged primary astrocyte cultures was performed to determine the impact of the TRPV4 antagonists on SOX9. […] Collagen IV is a significant scarring extracellular matrix produced by astrocytes and contributing to the inhibitory properties of the glial scar.
Background: A reporter such as luciferase makes a cellular process visible.

Another assay deals with SOX9 target genes. Put plainly: Q-PCR of SOX9 target gene expression in aged primary astrocyte cultures. Details: reduction of XT-1 expression / reduction of HAPLN1 expression / reduction of aggrecan expression / reduction of Col2a expression / reduction of Col4a expression: concentration or dose not given beside the values. From the text:
Another approach to modulating the capacity of calmodulin to transport SOX9 into the nucleus is via competitive inhibition of calmodulin binding. To that effect, a novel peptide (SOX-CAL) was generated to specifically block the calmodulin SOX9 binding site. The SOX-CAL peptide sequence, […] (SEQ ID NO.8), corresponds with the calmodulin binding sequence in SOX9. To ensure the peptide's entry into the cell, it was synthesized fused to the protein transduction domain of the HIV-1 Tat protein. […] This analysis was performed in contrast to the control FLAG-TAT peptide.
Antagonists to TRPV4 cation channel were tested to determine their ability to decrease the activity of SOX9 in astrocytes. The effect of TRPV4 antagonists on SOX9 function was evaluated in cultured rat astrocytes transfected with pGL4.1 4×48 Col2a1. The day after transfection, cells were treated for 24 h with 2-APB (100 μM) or ruthenium red (10 μM) before the luciferase assay was performed. The broad-spectrum transient receptor potential (TRP) channel antagonist 2-APB inhibited SOX9 activity by ˜70%, while the vanniloid subfamily-specific TRP antagonist ruthenium red inhibited SOX9 activity by ˜25%. With respect to SOX9 target genes, Q-PCR analysis of aged primary astrocyte cultures was performed to determine the impact of the TRPV4 antagonists on SOX9. Treatment with ruthenium red specifically reduces aggrecan and Col4a expression by 40% and 50%, respectively (FIG. 6B), while 2-APB reduces XT-1, HAPLN1, aggrecan, Col2a, and Col4a by 50%, 70%, 80%, 50%, and 60% respectively (FIG. 6B, C), in rat primary astrocytes after a 48 hour exposure (n=3). […] Based on the role that the TRP channels serve in modulating calcium levels, and therefore calmodulin activity, the effect of the TRP channel blockers on SOX9 activity appears to be indirect.

The subject of another assay is Collagen IV. In words: Western blotting of astrocyte culture protein extract probed with anti-collagen IV. Particulars: Cal-TAT treated vs control cultures. Background: Immunoblotting shows a protein as a band on a membrane.
Setting [1] is: rat primary astrocytes, 48 hour exposure, n=3.
Setting [2] is: primary astrocyte cultures, in contrast to control FLAG-TAT peptide (FIG. 7C).

For the molecule `NCCOB(c1ccccc1)c1ccccc1` [2-APB], the “inhibition of SOX9 activity (luciferase assay)” value in the assay with SOX9 (100 μM) is approximately 70%. The “luciferase reporter activity (SOX9 activity)” value in the assay with SOX9 is “significantly reduce luciferase production”. For the same molecule, in the assay with SOX9 target genes (setting [1]), the “reduction of Col2a expression” value turned out to be 50%, the “reduction of Col4a expression” value is 60%, the “reduction of HAPLN1 expression” value is 70% and the “reduction of XT-1 expression” value was found to be 50%. The “reduction of aggrecan expression” value with SOX9 target genes (setting [1]) is on record as 80%.

For the molecule `Clc1ccc(C(c2ccc(Cl)cc2)n2cc[n+](CC(OCc3ccc(Cl)cc3Cl)c3ccc(Cl)cc3Cl)c2)cc1` (stereo not drawn) [Calmidazolium, calmidazolium], the “reduction of Sox9 activity as indicated by luciferase expression” value (“reduction of Sox9 activity as indicated” for short) in the assay with SOX9 is on record as “approximately 20%”.

In the case of `OCCN1CCN(CCCN2c3ccccc3Sc3ccc(C(F)(F)F)cc32)CC1` [Fluphenazine, fluphenazine], in the assay with SOX9, the “luciferase reporter activity (SOX9 activity)” value is reported as “dose dependent decrease in reporter activity”.

`COc1ccc2cc1Oc1ccc(cc1)C[C@H]1c3cc(c(OC)cc3CCN1C)Oc1c(OC)c(OC)cc3c1[C@H](C2)N(C)CC3` [Tetrandine, Tetrandrine]: in the assay on SOX9, the “reduction of Sox9 activity as indicated” value is recorded as “approximately 20%”.

Regarding `NCCCCCCNS(=O)(=O)c1cccc2ccccc12` [W5], in the assay on SOX9, the “concentration at which the decrease in luciferase reporter activity is optimized / maximal” value turned out to be 50 µM and the “luciferase reporter activity (SOX9 activity)” value is listed as “does dependent decreases in reporter activity”.

For `NCCCCCCNS(=O)(=O)c1cccc2c(Cl)cccc12` [W7], in the assay with SOX9, the “concentration at which the decrease in luciferase reporter activity is optimized / maximal” value is 50 µM and the “luciferase reporter activity (SOX9 activity)” value was “does dependent decreases in reporter activity”.

Consider `CC(COc1ccccc1)N(CCCl)Cc1ccccc1` (stereo not drawn) [phenoxybenzamine], for which, in the assay on SOX9, the “reduction of Sox9 activity as indicated” value is “up to 80%”; the “luciferase reporter activity (SOX9 activity)” value is “dose dependent inhibition of reporter activity at 20 and 50 uM”.

For `N.N.N.N.N.N.N.N.N.N.N.N.N.N.[Cl-].[Cl-].[Cl-].[Cl-].[Cl-].[Cl-].[O-2].[O-2].[Ru+3].[Ru+3].[Ru+4]` [ruthenium red], the “inhibition of SOX9 activity (luciferase assay)” value with SOX9 (10 μM) was approximately 25%. Besides, in the assay on SOX9, the “reduction of Sox9 activity as indicated” value was “about 25%” and the “luciferase reporter activity (SOX9 activity)” value was “significantly reduce luciferase production”. In the assay with SOX9 target genes (setting [1]), the “reduction of Col4a expression” value came out at 50% and the “reduction of aggrecan expression” value was found to be 40%.

On to “Cal-TAT: SOX-CAL peptide fused to the HIV-1 Tat transduction domain, one N-/C-terminal configuration (KRPMNAFMVWAQAARRKYGRKKRRQRRR)”, for which the “level of type IV collagen (Western blot)” value with Collagen IV is reported as “reduced level of type IV collagen”. For the same molecule, in the assay with SOX9 target genes (10 uM peptide, 48 hours), the “expression of C4ST” value is recorded as “significantly reduced” and the “expression of XT1” value is on record as “significantly reduced”. Also, in the assay on SOX9 target genes (setting [2]), the “Collagen 2A expression” value was “significant reduction”, the GFAP expression entry is “significant reduction”, the XT-1 expression result is recorded as “significant reduction” and the aggrecan expression entry was “significant reduction”. The brevican expression result in the assay on SOX9 target genes (setting [2]) is given as “significant reduction”.

For the molecule RRPMNAFMVWAQAARRK [SOX-CAL peptide], in the assay on SOX9 target genes (longer treatments (1 week)), the “SOX9 target genes expression” value is given as “even more profound reductions”.

With “TAT-Cal: SOX-CAL peptide fused to the HIV-1 Tat transduction domain, other N-/C-terminal configuration (YGRKKRRQRRRKRPMNAFMVWAQAARRK)”, in the assay on SOX9 target genes (10 uM peptide, 48 hours), the “expression of C4ST” value was “significantly reduced”, the “expression of Sox9” value was “increased” and the “expression of XT1” value was “significantly reduced”.
